Patent US20180282281A1, “IMMUNOREGULATORY AGENTS” (FLEXUS BIOSCIENCES, INC., priority 2014, published 2018)

Target: T1, human IDO1 (Homo sapiens, UniProt P14902)
T1 construct: expressed in transfected cells
Assay: HEK293 human IDO1 cell-based IDO inhibition assay
Details: HEK293 cells stably expressing human IDO1; 20 hours incubation; absorbance at 490 nm (Ehrlich reagent); 500 nM reference standard = 100% inhibition; read-out: HEK Human IDO-1 Potency
How it was run: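 HEK293 cells stably expressing human IDO1, 10,000/well in RPMI with 10% FBS, treated with compound 20 h at 37 °C. Stopped with 0.2% final TCA, 50 °C for 30 min; supernatant mixed with 0.2% Ehrlich reagent in acetic acid, 30 min RT, absorbance read at 490 nm.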

T1 sequence (P14902 whole entry): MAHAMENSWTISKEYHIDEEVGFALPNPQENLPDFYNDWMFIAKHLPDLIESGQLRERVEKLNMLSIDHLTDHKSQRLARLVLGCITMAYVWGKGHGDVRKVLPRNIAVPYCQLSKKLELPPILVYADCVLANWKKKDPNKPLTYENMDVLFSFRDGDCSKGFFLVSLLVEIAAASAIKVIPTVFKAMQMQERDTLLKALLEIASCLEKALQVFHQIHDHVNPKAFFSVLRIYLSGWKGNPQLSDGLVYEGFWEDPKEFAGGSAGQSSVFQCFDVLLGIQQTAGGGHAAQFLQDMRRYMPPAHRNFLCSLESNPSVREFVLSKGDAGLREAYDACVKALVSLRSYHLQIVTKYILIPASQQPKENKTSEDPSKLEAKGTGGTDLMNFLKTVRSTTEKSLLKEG

“N-(4-chlorophenyl)-2-(cis-4-(6-fluoroquinolin-4-yl)-1-hydroxycyclohexyl) propanamide [Example 231]” and “N-(4-chlorophenyl)-2-(cis-4-(6-fluoroquinolin-4-yl)-1-hydroxycyclohexyl) propanamide [Example 232]” cannot be ordered by IC50: less than 0.25 µM for the first, less than 0.05 µM for the second.

“N-(4-chlorophenyl)-2-(trans-4-(6-fluoroquinolin-4-yl)-1-hydroxycyclohexyl) propanamide [Example 229]” and “N-(4-chlorophenyl)-2-(trans-4-(6-fluoroquinolin-4-yl)-1-hydroxycyclohexyl) propanamide [Example 230]” cannot be ordered by IC50: less than 0.05 µM for the first, less than 0.25 µM for the second.

Same assay, conditions: read-out: HEK Human IDO-1 Potency

C[C@@H](C(=O)Nc1ccc(Cl)cc1O)[C@H]1CC[C@@H](c2ccnc3ccc(F)cc32)CC1 [Example 238, (R)-N-(4-chloro-2-hydroxyphenyl)-2-(cis-4-(6-fluoroquinolin-4-yl)cyclohexyl)propanamide] and C[C@@H](C(=O)Nc1ccc(Cl)c(O)c1)[C@H]1CC[C@@H](c2ccnc3ccc(F)cc32)CC1 [Example 239, (R)-N-(4-chloro-3-hydroxyphenyl)-2-(cis-4-(6-fluoroquinolin-4-yl)cyclohexyl)propanamide] cannot be ordered by IC50: less than 0.05 µM for the first, less than 0.05 µM for the second.

C[C@@H](C(=O)NC1CC2CCC1C2)[C@H]1CC[C@@H](c2ccnc3ccc(F)cc32)CC1 (stereo partly drawn) [Example 240, (2R)-N-((2S)-bicyclo[2.2.1]heptan-2-yl)-2-(cis-4-(6-fluoroquinolin-4-yl)cyclohexyl)propanamide] and C=CC[C@@H](C(=O)Nc1ccc(Cl)cc1N)[C@H]1CC[C@@H](c2ccnc3ccc(F)cc32)CC1 [Example 241, (R)-N-(2-amino-4-chlorophenyl)-2-(cis-4-(6-fluoroquinolin-4-yl)cyclohexyl)pent-4-enamide] cannot be ordered by IC50: less than 0.25 µM for the first, less than 0.05 µM for the second.

CC1(CC(=O)NC2(C)CCCCC2)CCN(c2ccnc3ccc(F)cc23)CC1 [Example 242, 2-(1-(6-Fluoroquinolin-4-yl)-4-methylpiperidin-4-yl)-N-(1-methylcyclohexyl)acetamide] and Cc1ccc(NC(=O)C(C)N2CCC(Oc3ccnc4ccc(F)cc34)CC2)cc1 (stereo not drawn) [compound 101] cannot be ordered by IC50: less than 0.05 µM for the first, less than 0.05 µM for the second.

CCC(C(=O)Nc1ccc(C)cc1)N1CCC(Oc2ccnc3ccc(F)cc23)CC1 (stereo not drawn) [compound 97] and CCC(C(=O)Nc1ccc(Cl)cc1)N1CCC(Oc2ccnc3ccc(F)cc23)CC1 (stereo not drawn) [compound 98] cannot be ordered by IC50: less than 0.25 µM for the first, less than 0.25 µM for the second.

CC(C(=O)Nc1ccc(F)cc1)N1CCC(Oc2ccnc3ccc(F)cc23)CC1 (stereo not drawn) [compound 99] and CCOc1ccc(NC(=O)C(C)N2CCC(Oc3ccnc4ccc(F)cc34)CC2)cc1 (stereo not drawn) [compound 100] cannot be ordered by IC50: less than 0.05 µM for the first, less than 0.05 µM for the second.

CCOc1ccc(NC(=O)C(C)N2CCC(Oc3ccnc4ccc(F)cc34)CC2)cc1 (stereo not drawn) [compound 107] and CCC(C(=O)Nc1ccc(Cl)cc1)N1CCC(Oc2ccnc3ccc(F)cc23)CC1 (stereo not drawn) [compound 111] cannot be ordered by IC50: less than 0.05 µM for the first, less than 0.25 µM for the second.

Going from CCOc1ccc(NC(=O)C(C)N2CCC(Oc3ccnc4ccc(F)cc34)CC2)cc1 (stereo not drawn) [compound 108] to CCC(C(=O)Nc1ccc(Cl)cc1)N1CCC(Oc2ccnc3ccc(F)cc23)CC1 (stereo not drawn) [compound 112], the IC50 rises from less than 0.25 µM to greater than 0.25 µM.
